One may read the IC50 as the concentration needed to halve the response being measured.

Structures can show the parent of a compound that is named as a salt.

Chain of recombinant human HPK1 (Q92918 whole entry): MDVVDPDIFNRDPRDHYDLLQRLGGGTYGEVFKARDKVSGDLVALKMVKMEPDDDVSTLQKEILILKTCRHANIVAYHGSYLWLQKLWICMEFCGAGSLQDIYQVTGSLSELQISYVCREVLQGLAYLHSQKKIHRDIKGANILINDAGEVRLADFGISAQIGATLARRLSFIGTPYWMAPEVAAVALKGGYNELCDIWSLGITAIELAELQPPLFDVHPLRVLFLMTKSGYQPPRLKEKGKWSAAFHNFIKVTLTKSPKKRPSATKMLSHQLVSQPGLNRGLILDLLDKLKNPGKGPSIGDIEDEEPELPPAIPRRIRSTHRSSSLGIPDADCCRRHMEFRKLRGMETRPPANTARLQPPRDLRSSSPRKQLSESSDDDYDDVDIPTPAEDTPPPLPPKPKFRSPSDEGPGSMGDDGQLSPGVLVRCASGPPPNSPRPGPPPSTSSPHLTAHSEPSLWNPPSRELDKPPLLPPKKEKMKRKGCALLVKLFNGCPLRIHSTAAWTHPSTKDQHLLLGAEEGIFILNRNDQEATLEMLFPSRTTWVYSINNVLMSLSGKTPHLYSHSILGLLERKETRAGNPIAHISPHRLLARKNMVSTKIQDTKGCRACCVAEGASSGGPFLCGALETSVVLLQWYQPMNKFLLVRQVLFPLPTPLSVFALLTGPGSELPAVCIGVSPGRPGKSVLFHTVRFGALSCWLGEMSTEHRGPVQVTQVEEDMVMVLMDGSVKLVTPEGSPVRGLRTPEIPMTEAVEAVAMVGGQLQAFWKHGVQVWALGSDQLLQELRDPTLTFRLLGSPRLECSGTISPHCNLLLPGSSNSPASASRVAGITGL

This test deals with recombinant human HPK1 (Homo sapiens (Human), UniProt Q92918). As to the kind of experiment: HPK1 kinase assay (Promega ADP-Glo kinase assay). In kind it is biochemical. Particulars: In vitro activity against HPK1, 5 ng HPK1, MBP substrate, ATP 25 μM, 30° C. 40 minutes. On the procedure:
HPK1 kinase activity was measured by Promega's ADP-Glo™ kinase assay. In this assay, 5 ng of recombinant human HPK1 (signalchem) is incubated with 5 μL of compounds (0.5% DMSO), 5 μL of MBP (0.5 μg/μl) and 5 μL of ATP (25 μM) in buffer (40 mM Tris, 7.5; 20 mM MgCl2; 0.1 mg/ml BSA; 50 μM DTT.). The assay was started by incubating the reaction mixture in a 96-well plate at 30° C. for 40 minutes. After the incubation, 25 μL ADP-Glo reagent was added and the reaction was incubated at room temperature for 40-min to stop the reaction and degrade residual ATP. The ADP product was then converted to ATP by adding 50 μL per well of detection reagent. Luminescence was detected after 30-min room temperature incubation with the Molecular device I3X plate reader. The IC50 values were calculated from a series of percent inhibition values determined at a range of inhibitor concentration using software routines as implemented in the GraphPad Prism 7 software and SigmaPlot13.0.
A general note: In ADP-Glo the light output rises with the ADP produced.
Regarding `CC(C)Nc1c(F)c(Cl)c(-c2cn3cc(NC(=O)C4CCOC4)nc3cn2)c2cn[nH]c12` (centres unmarked) [Example 125, N-(6-(5-chloro-6-fluoro-7-(isopropylamino)-1H-indazol-4-yl)imidazo[1,2-a]pyrazin-2-yl)tetrahydrofuran-3-carboxamide], the IC50 is < 100 nM.

Regarding `CC(=O)Nc1cn2cc(-c3c(Cl)c(F)c(C(O)C4CC4)c4[nH]ncc34)ncc2n1` (centres unmarked) [Example 152, N-(6-(5-chloro-7-(cyclopropyl(hydroxy)methyl)-6-fluoro-1H-indazol-4-yl)imidazo[1,2-a]pyrazin-2-yl)acetamide], the half-maximal inhibitory concentration (IC50) was < 100 nM.

With `COc1c(F)c(NC(C)C)c2[nH]ncc2c1-c1cn2cc(NC(C)=O)nc2cn1` [Example 158, N-(6-(6-fluoro-7-(isopropylamino)-5-methoxy-1H-indazol-4-yl)imidazo[1,2-a]pyrazin-2-yl)acetamide], the IC50 was < 100 nM.

Turning to `CC(NC(=O)C1CC1)c1c(F)c(C(F)F)c(-c2cn3cc(NC(=O)[C@@H]4C[C@@H]4F)nc3cn2)c2cn[nH]c12` (stereo partly drawn) [Example 76, (1S,2S)-N-(6-(7-(1-(cyclopropanecarboxamido)ethyl)-5-(difluoromethyl)-6-fluoro-1H-indazol-4-yl)imidazo[1,2-a]pyrazin-2-yl)-2-fluorocyclopropane-1-carboxamide], the half-maximal inhibitory concentration (IC50) was < 100 nM.

Consider `CC(=O)NC(c1c(F)c(C(F)(F)F)c(-c2cn3cc(NC(=O)[C@@H]4C[C@@H]4F)nc3cn2)c2cn[nH]c12)C1CC1` (stereo partly drawn) [Example 56, (1S,2S)-N-(6-(7-(acetamido(cyclopropyl)methyl)-6-fluoro-5-(trifluoromethyl)-1H-indazol-4-yl)imidazo[1,2-a]pyrazin-2-yl)-2-fluorocyclopropane-1-carboxamide formate], for which the half-inhibitory concentration (IC50) was < 100 nM.

Regarding `CC(=O)Nc1cn2cc(-c3c(Cl)c(F)c([C@@H](C)NC(=O)C(F)(F)F)c4[nH]ncc34)ncc2n1` [Example 139, (R)-N-(1-(4-(2-acetamidoimidazo[1,2-a]pyrazin-6-yl)-5-chloro-6-fluoro-1H-indazol-7-yl)ethyl)-2,2,2-trifluoroacetamide], the IC50 was < 100 nM.

As for `O=C(Nc1cn2cc(-c3c(C(F)F)c(F)c(C(C4CC4)N4C(=O)c5ccccc5C4=O)c4[nH]ncc34)ncc2n1)[C@@H]1C[C@@H]1F` (stereo partly drawn) [Example 48, (1S,2S)-N-(6-(7-(cyclopropyl(1,3-dioxoisoindolin-2-yl)methyl)-5-(difluoromethyl)-6-fluoro-1H-indazol-4-yl)imidazo[1,2-a]pyrazin-2-yl)-2-fluorocyclopropane-1-carboxamide], the IC50 is < 100 nM.

In the case of `NC(c1c(F)c(C(F)(F)F)c(-c2cn3cc(NC(=O)[C@@H]4C[C@@H]4F)nc3cn2)c2cn[nH]c12)C1CC1` (stereo partly drawn) [Example 44, (1S,2S)-N-(6-(7-(amino(cyclopropyl)methyl)-6-fluoro-5-(trifluoromethyl)-1H-indazol-4-yl)imidazo[1,2-a]pyrazin-2-yl)-2-fluorocyclopropane-1-carboxamide], the IC50 is < 100 nM.

Take `CCC(=O)Nc1cn2cc(-c3c(Cl)c(F)c(NC(C)C)c4[nH]ncc34)ncc2n1` [Example 61, N-(6-(5-chloro-6-fluoro-7-(isopropylamino)-1H-indazol-4-yl)imidazo[1,2-a]pyrazin-2-yl)propionamide]: the IC50 is < 100 nM.

Regarding `COCC(C)c1c(F)c(C)c(-c2cn3cc(NC(=O)[C@@H]4C[C@@H]4F)nc3cn2)c2cn[nH]c12` (stereo partly drawn) [Example 4, (1S,2S)-2-fluoro-N-(6-(6-fluoro-7-(1-methoxypropan-2-yl)-5-methyl-1H-indazol-4-yl)imidazo[1,2-a]pyrazin-2-yl)cyclopropane-1-carboxamide], the IC50 was < 100 nM.

`CC(C)Nc1c(F)c(Cl)c(-c2cn3cc(NC(=O)[C@H](C)N)nc3cn2)c2cn[nH]c12` [Example 79, (S)-2-amino-N-(6-(5-chloro-6-fluoro-7-(isopropylamino)-1H-indazol-4-yl)imidazo[1,2-a]pyrazin-2-yl)propanamide]: the half-maximal inhibitory concentration (IC50) is < 100 nM.

Take `CNC(=O)Nc1cn2cc(-c3c(Cl)c(F)c(NC(C)C)c4[nH]ncc34)ncc2n1` [Example 121, 1-(6-(5-chloro-6-fluoro-7-(isopropylamino)-1H-indazol-4-yl)imidazo[1,2-a]pyrazin-2-yl)-3-methylurea]: the IC50 fell in the range of 501 to 1000 nM.

With `COc1c(F)c(NC(C)C)c2[nH]ncc2c1-c1cn2cc(NC(=O)[C@@H]3C[C@@H]3F)nc2cn1` [Example 141, (1S,2S)-2-fluoro-N-(6-(6-fluoro-7-(isopropylamino)-5-methoxy-1H-indazol-4-yl)imidazo[1,2-a]pyrazin-2-yl)cyclopropane-1-carboxamide], the 50% inhibitory concentration (IC50) is < 100 nM.

As to `CC(C)Nc1c(F)c(Cl)c(-c2cn3cc(NC(=O)[C@@H]4C[C@@H]4CCl)nc3cn2)c2cn[nH]c12` [Example 37, (1R,2S)-N-(6-(5-chloro-6-fluoro-7-(isopropylamino)-1H-indazol-4-yl)imidazo[1,2-a]pyrazin-2-yl)-2-(chloromethyl)cyclopropane-1-carboxamide], the half-maximal inhibitory concentration (IC50) was < 100 nM.

Regarding `Cc1c(F)c(C(C)N)c2[nH]ncc2c1-c1cn2cc(NC(=O)[C@@H]3C[C@@H]3F)nc2cn1` (stereo partly drawn) [Example 25, (1S,2S)-N-(6-(7-(1-aminoethyl)-6-fluoro-5-methyl-1H-indazol-4-yl)imidazo[1,2-a]pyrazin-2-yl)-2-fluorocyclopropane-1-carboxamide], the IC50 was in the range of 101 to 500 nM.

As for `CC(C)Nc1c(F)c(Cl)c(-c2cn3cc(NC(=O)CC4COC4)nc3cn2)c2cn[nH]c12` [Example 116, N-(6-(5-chloro-6-fluoro-7-(isopropylamino)-1H-indazol-4-yl)imidazo[1,2-a]pyrazin-2-yl)-2-(oxetan-3-yl)acetamide], the IC50 is < 100 nM.

`CC(C)Nc1c(F)c(Cl)c(-c2cn3cc(NC(=O)[C@@H]4C[C@@H]4C(=O)O)nc3cn2)c2cn[nH]c12` [Example 20, (1S,2R)-2-((6-(5-chloro-6-fluoro-7-(isopropylamino)-1H-indazol-4-yl)imidazo[1,2-a]pyrazin-2-yl)carbamoyl)cyclopropane-1-carboxylic acid]: the IC50 is < 100 nM.

Regarding `COc1c(F)c(NC(C)C)c2[nH]ncc2c1-c1cn2cc(NC(=O)C3CC3)nc2cn1` [Example 160, N-(6-(6-fluoro-7-(isopropylamino)-5-methoxy-1H-indazol-4-yl)imidazo[1,2-a]pyrazin-2-yl)cyclopropanecarboxamide], the IC50 was < 100 nM.

Turning to `Cc1c(F)c(C2=CC(=O)CC2)c2[nH]ncc2c1-c1cn2cc(NC(=O)[C@@H]3C[C@@H]3F)nc2cn1` [Example 7, (1S,2S)-2-fluoro-N-(6-(6-fluoro-5-methyl-7-(3-oxocyclopent-1-en-1-yl)-1H-indazol-4-yl)imidazo[1,2-a]pyrazin-2-yl)cyclopropane-1-carboxamide], the IC50 lay within 101 to 500 nM.

Consider `CCNC(=O)[C@H]1C[C@H]1C(=O)Nc1cn2cc(-c3c(Cl)c(F)c(NC(C)C)c4[nH]ncc34)ncc2n1` [Example 29, (1R,2S)-N1-(6-(5-chloro-6-fluoro-7-(isopropylamino)-1H-indazol-4-yl)imidazo[1,2-a]pyrazin-2-yl)-N2-ethylcyclopropane-1,2-dicarboxamide], for which the IC50 was < 100 nM.

With `CC(C)Nc1c(F)c(Cl)c(-c2cn3cc(NC(=O)N4CCN(C)CC4)nc3cn2)c2cn[nH]c12` [Example 92, N-(6-(5-chloro-6-fluoro-7-(isopropylamino)-1H-indazol-4-yl)imidazo[1,2-a]pyrazin-2-yl)-4-methylpiperazine-1-carboxamide formate], the IC50 is < 100 nM.

For the compound `CC(N[S+]([O-])C(C)(C)C)c1c(F)c(Cl)c(-c2cn3cc(NC(=O)[C@@H]4C[C@@H]4F)nc3cn2)c2cn[nH]c12` (stereo partly drawn) [Example 86, (1S,2S)-N-(6-(7-(1-((tert-butylsulfinyl)amino)ethyl)-5-chloro-6-fluoro-1H-indazol-4-yl)imidazo[1,2-a]pyrazin-2-yl)-2-fluorocyclopropane-1-carboxamide], the IC50 is < 100 nM.

For the compound `CC(=O)Nc1cn2cc(-c3c(Cl)c(F)c(CN4CC(C)(O)C4)c4[nH]ncc34)ncc2n1` [Example 157, N-(6-(5-chloro-6-fluoro-7-((3-hydroxy-3-methylazetidin-1-yl)methyl)-1H-indazol-4-yl)imidazo[1,2-a]pyrazin-2-yl)acetamide], the half-inhibitory concentration (IC50) lay within 501 to 1000 nM.

Turning to `CC(C)Nc1c(F)c(Cl)c(-c2cn3cc(NC(=O)[C@@H]4C[C@@H]4C(F)F)nc3cn2)c2cn[nH]c12` [Example 88, (1R,2S)-N-(6-(5-chloro-6-fluoro-7-(isopropylamino)-1H-indazol-4-yl)imidazo[1,2-a]pyrazin-2-yl)-2-(difluoromethyl)cyclopropane-1-carboxamide], the IC50 is < 100 nM.

Turning to `CC(C)Nc1c(F)c(Cl)c(-c2cn3cc(NC(=O)C4CCN(C)CC4)nc3cn2)c2cn[nH]c12` [Example 123, N-(6-(5-chloro-6-fluoro-7-(isopropylamino)-1H-indazol-4-yl)imidazo[1,2-a]pyrazin-2-yl)-1-methylpiperidine-4-carboxamide], the IC50 was < 100 nM.

Regarding `O=C(NC(c1c(F)c(C(F)F)c(-c2cn3cc(NC(=O)[C@@H]4C[C@@H]4F)nc3cn2)c2cn[nH]c12)C1CC1)C1CC1` (stereo partly drawn) [Example 77, (1S,2S)-N-(6-(7-(cyclopropanecarboxamido(cyclopropyl)methyl)-5-(difluoromethyl)-6-fluoro-1H-indazol-4-yl)imidazo[1,2-a]pyrazin-2-yl)-2-fluorocyclopropane-1-carboxamide], the IC50 was < 100 nM.

The values above are taken from patent publication US20250197406A1, “INDAZOLES AS HEMATOPOIETIC PROGENITOR KINASE 1 (HPK1) INHIBITORS AND METHODS FOR USING SAME” (1ST Biotherapeutics, Inc., priority 2022, published 2025).
